{"source": "patent US20110034714A1", "about": "“METAL COMPLEX COMPOUND, CANCER THERAPEUTIC AGENT COMPOSITION CONTAINING THE METAL COMPLEX COMPOUND AS AN ACTIVE INGREDIENT, AND INTERMEDIATE FOR THE METAL COMPLEX COMPOUND” (priority 2007, published 2011)", "type_in_all_cases": "in vivo", "key": {"human tumor Lu-24": {"tested_on": "human tumor Lu-24", "experiment": "Anti-tumor action in nude mice transplanted with human tumor Lu-24", "settings": "Lu-24 tumor-bearing nude mice, 10.0 mg and 12.0 mg/kg, tail vein, 3 times at 4 days' intervals", "protocol": "(§1) Using nude mice transplanted with human tumors SC-6-JCK and Lu-24, the anti-tumor action of the substance having the structure below (Compound 44), among the compounds of the present invention, was investigated. Each of SC-6-JCK and Lu-24 was subcutaneously implanted in nude mice, and, when the tumor volumes reached to 100 to 300 mm^3, 7.0 mg and 10.0 mg/kg of the present test substance were respectively administered to the SC-6-JCK tumor-bearing mice, and 10.0 mg and 12.0 mg/kg of the present test substance were respectively administered to the Lu-24 tumor-bearing mice, from the tail vein 3 times intermittently at 4 days' intervals."}, "[1]": {"experiment": "BUN (blood urea nitrogen) as an index of nephrotoxicity in tumor-bearing nude mice", "settings": "4 days after completion of the administration; SC-6-JCK and Lu-24 tumor-bearing nude mice", "protocol": "as §1"}, "human tumor SC-6-JCK": {"tested_on": "human tumor SC-6-JCK", "experiment": "Anti-tumor action in nude mice transplanted with human tumor SC-6-JCK", "settings": "SC-6-JCK tumor-bearing nude mice, 7.0 mg and 10.0 mg/kg, tail vein, 3 times at 4 days' intervals", "protocol": "as §1"}}, "data": [{"compound": "CCOP1(=O)CP(=O)(OCC)[O][Pt]([NH2])([NH2])[O]1", "note": "(stereo not drawn) [Compound 44]", "values": [{"measurement": "suppression of the tumor volume", "setting": "human tumor Lu-24", "result": "suppression of the tumor volume was observed in a dose-dependent manner"}, {"measurement": "BUN (blood urea nitrogen) as an index of nephrotoxicity", "setting": "[1]", "result": "an increase of the BUN value was not observed"}, {"measurement": "suppression of the tumor volume", "setting": "human tumor SC-6-JCK", "result": "suppression of the tumor volume was observed in a dose-dependent manner"}]}]}
